# Earlier results, collected in patent US7803786B2, “Pharmaceutical co-crystal compositions and related methods of use” (Transform Pharmaceuticals, Inc., priority 2004, dated 2010).
# Key:
# [1] = Cambridge Structural Database (piracetam), Merck Index (gentisic acid)
# [2] = co-crystal former; multiple values for multiple functionalities
Compound,known polymorphism of the free form [1],pKa Values [2]
O=C(O)c1cc(O)ccc1O [gentisic acid],dimorphic,–
NC(=O)CN1CCCC1=O [piracetam],Three polymorphs,–
O=C(O)C(O)C(O)C(O)C(O)CO (stereo not drawn) [Gluconic acid],–,3.76
